Columns and labels:
Meg-01 cells [1] = test: Platelet-sized particle production from Meg-01 cells by flow cytometry (GPIIIa positive); format: cell-based, human; conditions: for production of GPIIIa positive platelet-sized particles: Meg-01 cells pretreated with 100 ng/ml thrombopoietin for 72 hours, then 100 μM SNO-glu for 2 hours
Method: The production of platelet-sized particles in the Meg-01 cell line using flow cytometry was determined. Human megakaryoblastic leukemia cell line Meg-01 was obtained from American Type Culture Collection (Manassas, Va.) and grown in phenol red-free RPMI-1640 media (Gibco-BRL, Grand Island, N.Y.) supplemented with 10% fetal bovine serum at 37° C. in a humidified atmosphere of 5% CO2. The experiment to monitor platelet production by the megakaryocytoid cell line, Meg-01, were performed as follows: 10 ml of Meg-01 cells (1×10^5/ml) were treated with 100 ng/ml of thrombopoietin (TPO, Amgen, Thousand Oaks, Calif.) for 72 hours. The cells were then centrifuged at 1000 rpm for 10 minutes, washed with phosphate buffered saline (PBS) and resuspended in RPMI-1640 media. Meg-01 cells, in the presence and absence of TPO, were treated with 100 μM SNO-glu for 2 hours. The cells were collected by centrifugation (1000 rpm for 10 minutes), washed once in PBS, resuspended in 500 μl of 3% formaldehyde, and allowed to fix for 20 minutes at room temperature. After fixation, 100 μl of cells were labeled with fluorescein isothiocyanate-conjugated (FITC)-conjugated monoclonal mouse anti-human platelet glycoprotein IIIa, CD61 (GPIIIa, DAKO Corp. Carpinteria, Calif.) at a near saturating concentration and incubated at room temperature for 20 minutes. The sample was diluted in 100 μl of PBS and analyzed on a Coulter EPICS XL flow cytometer (Coulter, Miami, Fla.). DNA check flow cytometry beads purchased from Coulter were used for daily instrument calibration. Appropriate color compensation was set for FITC fluorescence and phycoerythrin fluorescence using 525 nm and 575 nm band pass filters, respectively. All data were saved in flow cytometry list mode files and analyzed using Coulter ELITE software, version 2.21. Platelet-sized particles were identified by characteristic log forward light scatter (LFS). Only those particles that bound the anti-GPIIIa-FITC antibody ([…] FITC-conjugated antibody) (Dako, Denmark) were analyzed (by gating the fluorescence signal).

Meg-01 cells [2] = test: Production of cGMP from megakaryocytes treated with SNO-glu (ELISA); format: cell-based, human; conditions: for cGMP: n = 2
Method: The Meg-01 cells were grown as described in Example 1. The Med-01 cells, in the presence and absence of TPO, were treated with 100 μM SNO-glu for varying lengths of time. The cells were collected by centrifugation (1000 rpm for 10 minutes), and then lysed with 6% trichloroacteic acid (TCA). The cGMP was extracted with distilled water-saturated ether. The cGMP was quantified using the standard ELISA assay (Caymen Chemical Inc., Ann Arbor, Mich.).

| Compound | production of GPIIIa positive platelet-sized particles (Meg-01 cells [1]; listed as S-nitroso-glutathione) | production of GPIIIa positive platelet-sized particles (Meg-01 cells [1]; listed as SNO-glu) | formation of GPIIIa positive platelet-sized particles (Meg-01 cells [1]; Meg-01 cells, 100 μM SNO-glu for 2 hours, no TPO) | cGMP (Meg-01 cells [2]; 100 μM SNO-Glu in the presence of TPO, 30 minutes) | cGMP (Meg-01 cells [2]; 100 μM, 5 minutes) | cGMP (Meg-01 cells [2]; 100 μM, 10 minutes) | cGMP (Meg-01 cells [2]; 100 μM, 20 minutes) | cGMP (Meg-01 cells [2]; 100 μM, 30 minutes) | production of cGMP (in words) (Meg-01 cells [2]; Meg-01 cells, 100 μM SNO-glu) | effect of added TPO on cGMP production during SNO-glu treatment (Meg-01 cells [2]; Meg-01 cells, TPO added during 100 μM SNO-glu treatment) |
| --- | --- | --- | --- | --- | --- | --- | --- | --- | --- | --- |
| N[C@@H](CCC(=O)N[C@@H](CSN=O)C(=O)NCC(=O)O)C(=O)O [SNO-Glu, S-nitroso-glutathione] | promoted platelet-like particle formation | enhanced production of GPIIIa positive platelet-sized particles | formation of GPIIIa positive platelet-sized particle population | 0.960 pmol cGMP/mg Protein | 263.1 pmol cGMP/mg Protein | 461.2 pmol cGMP/mg Protein | 472.9 pmol cGMP/mg Protein | 611.3 pmol cGMP/mg Protein | increased production of cGMP |  |
| TPO: thrombopoiesis stimulating factor thrombopoietin (TPO, Amgen) |  |  |  |  |  |  |  |  |  | completely suppressed the production of cGMP |
